Results as given in patent US6528516B1, “Methods for reducing intraocular pressure using A3 adenosine receptor antagonists” (Trustees of the University of Pennsylvania, The Center for …, priority 1998, dated 2003).
“Also recorded” adds a separate entry of the source.

What was measured:
[1] = system: HCE (human ciliary epithelial) cell line, NPE cells; assay: Cell volume (shrinkage) of NPE cells in isosmotic solution, Coulter Counter, 5 μM gramicidin; assay type: cell-based; conditions: for effect of A3 antagonist on shrinkage triggered by 3 μM CGS-21680: 100 nM MRS-1191 preincubation; for effect of A3 antagonist on adenosine-stimulated isotonic shrinkage: 300 nM MRS-1097, 100 nM MRS-1191, 100 nM MRS-1523, 10 μM adenosine; for effect of A3 antagonist on IB-MECA-stimulated isotonic shrinkage: 2 min preincubation, MRS-1097 300 nM, MRS-1191 100 nM, 100 nM IB-MECA
Description: A 0.5-ml aliquot of the HCE cell suspension in DMEM was added to 20 ml of each test solution, which contained (in mM): 110.0 NaCl, 15.0HEPES [4-(2-hydroxyethyl)-1-piperazineethanesulfonic acid], 2.5 CaCl2, 1.2 MgCl2, 4.7 KCl, 1.2 KH2PO4, 30.0 NaHCO3, and 10.0 glucose, at a pH of 7.4 and osmolality of 298-305 mOsm. Parallel aliquots of cells were studied on the same day. One aliquot usually served as a control, and the others were exposed to different experimental conditions at the time of suspension. The same amount of solvent vehicle (dimethylformamide, DMSO or ethanol) was always added to the control and experimental aliquots. The sequence of studying the suspensions was varied to preclude systematic time-dependent artifacts (Civan et al., Exp. Eye Res. 54:181-191, 1992).
Cell volumes of isosmotic suspensions were measured with a Coulter Counter (model ZBI-Channelyzer II), using a 100-μm aperture (Civan et al., supra., 1994). As previously described (Wax et al., supra., 1993), the cell volume (vC) of the suspension was taken as the peak of the distribution function. Cell shrinkage was fit as a function of time (t) to a monoexponential function:
vC=v∞+(v0−v∞)−[e^−(t−t^0^)/τ] {1}
where v∞ is the steady-state cell volume, v0 is the cell volume at the first point (t0) of the time course to be fit, and τ is the time constant of the shrinkage. For purposes of data reduction, the data were normalized to the first time point, taken to be 100% isotonic volume. Fits were obtained by nonlinear least-squares regression analysis, permitting both v∞and τ to be variables.
In order to differentiate among these receptors, the experiments were repeated in the present study using a series of agonists and antagonists selective for these receptors. As we wished to identify the effects of these receptors specifically on Cl^− channels, 5 μM gramicidin D was included in all solutions to eliminate any potential contribution from K^+ channels. This ionophore readily partitions into plasma membranes to form a cation-selective pore, and is widely used for studying volume regulation (Hoffmann et al., in Interaction of Cell Volume and Cell Function, Lang et al., eds., Springer, Heidelberg, Germany, pp. 188-248, (ACEP Series 14), 1993)). Under these conditions, release of cell Cl^− becomes the rate-limiting factor in both hypo-(Civan et al., Exp. Eye Res. 54:181-191, 1992) and isoosmotic cell shrinkage (Carre et al., supra., 1997).

human A2 receptors = conditions: read-out: Ki for binding to human A2 receptors; cited from earlier work
[2] = target: T1, recombinant human A2B receptors (Homo sapiens, UniProt P29275); assay: Radioligand binding to recombinant human A2B receptors; conditions: at 10 μM
T1 sequence (P29275 1-332): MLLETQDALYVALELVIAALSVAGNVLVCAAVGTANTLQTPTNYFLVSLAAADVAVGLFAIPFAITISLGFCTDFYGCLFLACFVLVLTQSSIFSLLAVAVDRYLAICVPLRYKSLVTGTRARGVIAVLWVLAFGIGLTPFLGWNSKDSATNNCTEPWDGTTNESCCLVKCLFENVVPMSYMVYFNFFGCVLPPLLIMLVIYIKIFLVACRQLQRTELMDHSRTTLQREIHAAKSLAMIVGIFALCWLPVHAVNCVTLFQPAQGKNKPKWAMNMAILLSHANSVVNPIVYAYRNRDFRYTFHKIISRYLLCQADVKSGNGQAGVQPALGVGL

CCOC(=O)C1=C(C)NC(c2ccccc2)=C(C(=O)OCc2ccccc2)C1C#Cc1ccccc1 (racemic) [MRS-1191, 3-ethyl 5-benzyl-2-methyl-6-phenyl-4-phenylethynyl-1,4-(±)-dihydropyridine-3,5-dicarboxylate]
effect of A3 antagonist on shrinkage triggered by 3 μM CGS-21680 [1]: abolished this effect; also recorded: blocked | effect of A3 antagonist on shrinkage triggered by 3 μM CGS-21680 ([1]; listed as MRS 1191): prevented this shrinkage | effect on cell volume in the absence of IB-MECA ([1]; 100 nM antagonist alone): did not affect cell volume | effect of A3 antagonist on adenosine-stimulated isotonic shrinkage [1]: prevented the characteristic shrinkage | effect of A3 antagonist on adenosine-stimulated isotonic shrinkage ([1]; listed as MRS 1191): blocked the shrinkage | effect of A3 antagonist on IB-MECA-stimulated isotonic shrinkage [1]: prevented characteristic shrinkage | effect of A3 antagonist on IB-MECA-stimulated isotonic shrinkage ([1]; listed as MRS 1191): prevent the shrinkage | Ki (human A2 receptors): > 100 µM | displacement of radioligand binding to recombinant human A2B receptors [2]: did not displace radioligand binding
